We go through one compound from patent US20080096853A1, “Edible Compositions Comprising A Primary Lipid, A Co-Lipid, A Lipohilic Physiologically Active Ingredient And Water, And Their Preparation” (priority 2004, published 2008).

Assay type in all cases: physicochemical
A short description of data set [1]: USP24 dissolution test type II: solubility of β-carotene in bile extract solution. The conditions noted are these: 900 ml bile extract solution in aqueous buffer, 37° C., stirring in USP24 for 60 min. Here is the method: 6 mg of β-carotene and 2 g of lactic fatty acid ester+glycerol/propylene glycol reaction product (LFEGPG) were dissolved at 55° C. in 10 ml of ethanol. This solution was added dropwise to 200 ml of intensely agitated Tris buffer ([…]). After 15 minutes of stirring, the solution was cooled down and the pH adjusted to 4.0 with 1M HCl. The precipitate was then filtrated and LFEGPG lipid phase containing molecularly-dispersed β-carotene was used further in this experiment.
The precipitate was added to the USP24 vessel (dissolution test type II) loaded with 900 ml of bile extract solution in aqueous buffer at 37° C. As a control, 6 mg of free crystalline β-carotene was added to the same buffered bile solution in USP24.

Data set [2] in a line: Incorporation of β-carotene into LFEGPG in model systems (UV-Vis after centrifugation and hexane extraction). Here is the method:
• (1) A. 1 g LFEGPG and 2.4 mg pure β-carotene were added to 100 ml water, followed by magnet stirring for 1 h at 50° C. 1.7 mg β-carotene/g dry LFEGPG were detected by UV-Vis spectrophotometry after centrifugation and extraction of β-carotene from the collected lipid phase by hexane. • B. 1 g LFEGPG and 2.4 mg pure β-carotene were melted together and added dropwise to 100 ml water, followed by magnet stirring for 20 min at 50° C. Ultra Turrax was applied to homogenize the sample, then the sample was magnet stirred for another 10 min at 50° C. […] Polymorphic or mesomorphic lipid phases containing molecularly dispersed β-carotene were derived (judged from appearance under microscope, however also a few free β-carotene crystals were detected, thus not completely molecularly dispersed). • (4) As the solubility of β-carotene in ethanol is limited, complete molecular dispersion of β-carotene was achieved by the use of non food-grade solvents such as chloroform. […] The lipid phase was investigated under the optical light microscope, and no β-carotene crystals could be detected. • (5) 0.2 g of LFEGPG and 2 mg β-carotene as well as 0.2 g a LFEGPG/Datem (diacetyl tartaric acid esters of mono- and diglycerides) mixture (93/7, by wt) and 2 mg β-carotene were dissolved in chloroform. […]

The nature of data set [3]: In situ incorporation of carotenoids from carrot juice into LFEGPG (absorbance at 448 nm). Particulars: Silverson. Here is the method: • 1) 1 g solid LFEGPG was added to 100 ml cold carrot juice (97% pure fresh carrot juice, Zonnatura B.V Zoetermeer, Netherlands). The mixture was warmed up to 50° C. and kept at this temperature for 30 min with magnetic stirring. Homogenization was performed with a Silverson homogenizer at ˜5500 rpm followed by another hydration step for 5 min at 50° C. • The LFEGPG phase was filtrated, collected and dissolved in hexane. The β-carotene content was determined spectrophotometrically (absorbance at 448 nm) to be 0.68 mg β-carotene/g dry lipid phase (corrected for a water content of the hydrated LFEGPG phase of 30%). • (2) 2 g LFEGPG were melted at 50° C. and added dropwise to 100 ml carrot juice kept at 50° C. Magnet stirring was performed for 1 hour at 50° C., then the solution was homogenized with a Silverson homogenizer (4500 rpm for 1 minute) and magnet stirred at 50° C. for another 1 hour. The LFEGPG phase was collected by filtration and dissolved in hexane. The β-carotene content was spectrophotometrically determined (absorbance at 448 nm) to be 1.5 mg β-carotene/g dry LFEGPG. […] Magnet stirring was performed for 20 min at 50° C., Silverson (4500 rpm, 1 min.), and magnet stirred at 50° C. for another 10 min at 50° C. The LFEGPG phase was collected by filtration and dissolved in hexane. The β-carotene content was spectrophotometrically determined (absorbance at 448 nm) to be 2.0 mg β-carotene/g dry LFEGPG.

Regarding `CC1=C(/C=C/C(C)=C/C=C/C(C)=C/C=C/C=C(C)/C=C/C=C(C)/C=C/C2=C(C)CCCC2(C)C)C(C)(C)CCC1` [β-carotene], the “solubility of β-carotene in the bile solution, from the initial amount (6 mg)” value in data set [1] was around 0%. The “β-carotene detected in collected lipid phase” value in data set [2] (Example 6 (1) A: 1 g LFEGPG and 2.4 mg β-carotene added to 100 ml water, stirred 1 h at 50° C.) is 1.7 mg β-carotene/g dry LFEGPG. The compound also yielded a β-carotene recovered in data set [2] (Example 6 (1) B: 1 g LFEGPG and 2.4 mg β-carotene melted together, added dropwise to 100 ml water, Ultra Turrax) of 2.2 mg. The “β-carotene content of LFEGPG phase” value in data set [3] (Example 7 (1): 1 g solid LFEGPG in 100 ml cold carrot juice, 50° C. 30 min, corrected for 30% water content) was 0.68 mg β-carotene/g dry lipid phase; in data set [3] (Example 7 (2): 2 g molten LFEGPG in 100 ml carrot juice, 1 hour stirring, another 1 hour, 50° C.), 1.5 mg β-carotene/g dry LFEGPG; in data set [3] (Example 7 (3): 1 g molten LFEGPG in 100 ml carrot juice, 20 min stirring, another 10 min, 50° C.), 2.0 mg β-carotene/g dry LFEGPG.
